Source: patent US20250170090A1, “METHOD FOR PREVENTING OR TREATING DISEASE OR DISORDER ASSOCIATED WITH ANTINEOPLASTIC AGENT” (ONQUALITY PHARMACEUTICALS CHINA LTD., priority 2022, published 2025)
Where two headings read alike, the source gives them in different places.

Experiments:
[1] = tested on: hand-foot syndrome induced by anti-tumor agents; assay: Prevention of hand-foot syndrome induced by anti-tumor agents in rats, NO-NSAID ointment on hind paws (Table 2-2); type: in vivo, SD rats; conditions: Rattus norvegicus, topical, read-out: Control rate; for responders at 1 %: ointment 1% wt; for responders at 5 %: ointment 5% wt; for responders at 3 %: ointment 3% wt
From the text: A rat animal model was constructed, and the anti-tumor agents shown in Table 2-2 were respectively administered to 8-week-old female SD rats by daily oral gavage. […] Therefore, rats serve as an excellent animal model for simulating side effects (such as hand-foot syndrome) caused by anti-tumor agents.
After the rats (about 200 g) were fed and adapted for one week, they were divided into a NO-NSAID group and a control group, with 10 rats in each group, and a gavage administration test was conducted. The various anti-tumor agents were dissolve in a mixed solution of Cremophor EL:ethanol=1:1. The anti-tumor agent solution were diluted with PBS to the required concentration (about 3 times with PBS solution) before gavage administration. After gavage, an ointment containing NO-NSAID was applied to the hind paws of the rats, while the control group was applied with a blank ointment. After application, the rats were placed in a fixed cylinder for 4 hours. After 4 hours, the rats were released and the residual ointment was wiped off with clean water, then the rats were returned to the cage. The gavage frequency of inhibitors was shown in Table 2-2, and NO-NSAID was only applied once a day. The gavage and application operations were repeated daily until the end of the experiment.
Table 2-2 lists the animal experimental combinations of various anti-tumor agents and NO-NSAID ointments, as well as the corresponding experimental results (wherein the value in the control rate column=the hand-foot syndrome incidence rate in the blank group−the hand-foot syndrome incidence rate in the treatment group).

HUVEC cells = assay: CCK-8 cell viability: alleviation of proliferative toxicity of anti-tumor agents on HUVEC cells (Tables 7-1, 7-2); type: cell-based; conditions: for activation at 100 µM: Homo sapiens, 24 h, percentage increase in viable cells vs anti-tumor agent alone, read-out: Response rate % (average)
Protocol: The cultured HUVEC cells were digested the suspended, counted, and seed into a 96-well plate with 5,000-10,000 cells per well. The wells are divided into the following groups: blank control group, anti-tumor agent group, anti-tumor agent+NO-NSAID group, anti-tumor agent solvent group, NO-NSAID control group. Wherein each well of each group contained a basic medium, and the final liquid volume contained in each well was about 100 μL. The grouping situation was as follows: • 1) Blank control group: no solution was added except normally replacing the medium; • 2) Anti-tumor agent group: added the anti-tumor agent solution (the final concentration was shown in Table 7-1 and Table 7-2, the solvent of the anti-tumor agent solution was DMSO); • 3) Anti-tumor agent+NO-NSAID group: added the anti-tumor agent solution and the NO-NSAID solution (the final concentrations of anti-tumor agent and NO-NSAID were shown in Table 7-1 and Table 7-2, and according to the solubility of NO-NSAID, the solvent of NO-NSAID solution was selected as ethanol or sterile water, and minor volume differences in each group were adjusted by added the corresponding solvent); • 4) Anti-tumor agent solvent group: an equal volume of DMSO as contained in the corresponding anti-tumor agent solution in Group 2) was added; • 5) NO-NSAID control group: the same volume and type of solvent (for example, ethanol or sterile water) corresponding to the NO-NSAID contained in group 3) was added.
The anti-tumor agent solvent group was not involved in data processing and was only used as a reference for evaluating experimental system error. The NO-NSAID solvent control group was used for data correction to eliminate the influence of the solvent on the results.
After culturing for 24-48 hours, the Cell Counting Kit-8 (CCK-8) detection kit (C0037, Shanghai Beyotime Biotechnology Co., Ltd., Beyotime Biotechnology) was used to determine the cell viability. This allows for the calculation of the proliferative toxicity of anti-tumor agent on cell and the mitigating effect of NO-NSAID on proliferative toxicity. The results were statistically analyzed and plotted using GraphPad Prism 6.0 software and t test.

[2] = 120 h, Sorafenib 80 mg/kg once a day, Days 5
[3] = 432 h, Cabozantinib 50 mg/kg once a day, Days 18
[4] = 432 h, Lenvatinib 100 mg/kg twice a day, Days 18
[5] = 432 h, Nintedanib 110 mg/kg once a day, Days 18
[6] = 432 h, Regorafenib 90 mg/kg once a day, Days 18
[7] = Afatinib (10 μM), NO-NSAID 100 μM
[8] = Cabozantinib (5 μM), NO-NSAID 100 μM
[9] = Dabrafenib (10 μM), NO-NSAID 100 μM

Structure (SMILES): CC(=O)Oc1ccccc1C(=O)Oc1cccc(CO[N+](=O)[O-])c1 [Compound A2]
- responders at 1 % [1, 2]: 50%
- responders at 2 % ([1]; 120 h, Sorafenib 80 mg/kg once a day, ointment 2% wt, Days 5): 50%
- responders at 5 % [1, 2]: 66.7%
- responders at 10 % ([1]; 120 h, Sorafenib 80 mg/kg once a day, ointment 10% wt, Days 5): 80%
- responders at 3 % ([1]; 360 h, Apatinib 105 mg/kg once a day, Days 15): 50%
- responders at 3 % ([1]; 360 h, Encorafenib 80 mg/kg once a day, Days 15): 42.9%
- responders at 3 % ([1]; 360 h, Lapatinib 120 mg/kg twice a day, Days 15): 33.3%
- responders at 3 % ([1]; 360 h, Sunitinib 120 mg/kg once a day, Days 15): 42.9%
- responders at 3 % ([1]; 384 h, Fruquintinib 40 mg/kg once a day, Days 16): 71.4%
- responders at 3 % ([1]; 432 h, Anlotinib 20 mg/kg once a day, Days 18): 66.7%
- responders at 3 % ([1]; 432 h, Axitinib 50 mg/kg once a day, Days 18): 40%
- responders at 1 % [1, 3]: 28.6%
- responders at 2.5 % ([1]; 432 h, Cabozantinib 50 mg/kg once a day, ointment 2.50% wt, Days 18): 42.9%
- responders at 5 % [1, 3]: 66.7%
- responders at 1 % [1, 4]: 42.9%
- responders at 3 % [1, 4]: 42.9%
- responders at 5 % [1, 4]: 71.4%
- responders at 1 % [1, 5]: 33.3%
- responders at 3 % [1, 5]: 50%
- responders at 5 % [1, 5]: 66.7%
- responders at 1 % [1, 6]: 57.1%
- responders at 5 % [1, 6]: 66.7%
- responders at 3 % ([1]; 480 h, Erdafitinib 45 mg/kg once a day, Days 20): 71.4%
- responders at 3 % ([1]; 480 h, Olmutinib 100 mg/kg once a day, Days 20): 60%
- NO-NSAID response rate % (average) (HUVEC cells; Afatinib (10 μM), NO-NSAID 0.1 μM): 15%
- NO-NSAID response rate % (average) (HUVEC cells; Afatinib (10 μM), NO-NSAID 1 μM): 17%
- NO-NSAID response rate % (average) (HUVEC cells; [7]): 46%
- NO-NSAID response rate % (average) (HUVEC cells; Afatinib (10 μM), NO-NSAID 500 μM): 38%
- NO-NSAID response rate % (average) (HUVEC cells; Cabozantinib (5 μM), NO-NSAID 0.1 μM): 3%
- NO-NSAID response rate % (average) (HUVEC cells; Cabozantinib (5 μM), NO-NSAID 1 μM): 4%
- NO-NSAID response rate % (average) (HUVEC cells; [8]): 10%
- NO-NSAID response rate % (average) (HUVEC cells; Cabozantinib (5 μM), NO-NSAID 500 μM): 12%
- NO-NSAID response rate % (average) (HUVEC cells; Dabrafenib (10 μM), NO-NSAID 0.1 μM): 23%
- NO-NSAID response rate % (average) (HUVEC cells; Dabrafenib (10 μM), NO-NSAID 1 μM): 36%
- NO-NSAID response rate % (average) (HUVEC cells; [9]): 49%
- NO-NSAID response rate % (average) (HUVEC cells; Dabrafenib (10 μM), NO-NSAID 500 μM): 30%
- NO-NSAID response rate % (average) (HUVEC cells; Everolimus (5 μM), NO-NSAID 0.1 μM): −11%
- NO-NSAID response rate % (average) (HUVEC cells; Everolimus (5 μM), NO-NSAID 1 μM): −6%
- NO-NSAID response rate % (average) (HUVEC cells; Everolimus (5 μM), NO-NSAID 100 μM): 33%
- NO-NSAID response rate % (average) (HUVEC cells; Everolimus (5 μM), NO-NSAID 500 μM): −9%
- activation at 100 µM (HUVEC cells; [7]): 46%
- activation at 100 µM (HUVEC cells; Anlotinib (5 μM), NO-NSAID 100 μM): 78%
- activation at 100 µM (HUVEC cells; Apatinib (10 μM), NO-NSAID 100 μM): 56%
- activation at 100 µM (HUVEC cells; Axitinib (10 μM), NO-NSAID 100 μM): 77%
- activation at 100 µM (HUVEC cells; [8]): 10%
- activation at 100 µM (HUVEC cells; [9]): 49%
- activation at 100 µM (HUVEC cells; Dacomitinib (5 μM), NO-NSAID 100 μM): 12%
